pIC50: −log10 of the molar value.
Test system: IL-12
Assay: Human in vitro assay: inhibition of IL-12 production in IFNγ/LPS- or IFNγ/SAC-stimulated human PBMC or THP-1 cells (ELISA)
Assay type: cell-based
Conditions: read-out: IC50 Range (representative in vitro IC50 data)
Method in brief: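 PBMC (5×10^5 cells/well) primed with IFNγ 30 U/mL for 22 h then LPS 1 μg/mL, or IFNγ 100 U/mL then SAC 0.01%; THP-1 primed with IFNγ 100 U/mL for 22 h then SAC 0.025%, with compound in 0.25% DMSO. Supernatant IL-12 p70/p40 measured by sandwich ELISA after 18 h; IC50 derived; viability by MTS.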

Compound | pIC50
Cc1[nH]c2ccc(NC(=O)c3cc(NCC(=O)N(C)CCO)nc(N4CCOCC4)n3)cc2c1C [Compound 101, 6-({[(2-Hydroxy-ethyl)-methyl-carbamoyl]-methyl}-amino)-2-morpholin-4-yl-pyrimidine-4-carboxylic acid (2,3-dimethyl-1H-indol-5-yl)-amide] | > 6.00
COCCN(C)c1cc(C(=O)Nc2cccc(-c3nc(C)no3)c2)nc(N2CCOCC2)n1 [Compound 207, 6-((2-methoxyethyl)(methyl)amino)-N-(3-(3-methyl-1,2,4-oxadiazol-5-yl)phenyl)-2-morpholinopyrimidine-4-carboxamide] | ≤ 6.00
CCc1c[nH]c2ccc(NC(=O)c3cc(N4CCC5(CC4)OCCO5)nc(N4CCOCC4)n3)cc12 [Compound 175, 6-(1,4-Dioxa-8-aza-spiro[4.5]dec-8-yl)-2-morpholin-4-yl-pyrimidine-4-carboxylic acid (3-ethyl-1H-indol-5-yl)-amide] | > 6.00
CCN(CC)c1cc(C(=O)Nc2ccc3[nH]c(C)c(C)c3c2)nc(N2CCOCC2)n1 [Compound 93, 6-Diethylamino-2-morpholin-4-yl-pyrimidine-4-carboxylic acid (2,3-dimethyl-1H-indol-5-yl)-amide] | > 6.00
Cc1cccc(OC(=O)Nc2cc(N3CCOCC3)nc(OCCc3ccccn3)n2)c1 [Compound 88, [6-Morpholin-4-yl-2-(2-pyridin-2-yl-ethoxy)-pyrimidin-4-yl]-carbamic acid m-tolyl ester] | ≤ 6.00
COCCN(C)c1cc(C(=O)Nc2nc3cc(C)c(C)cc3s2)nc(N2CCOCC2)n1 [Compound 203, N-(5,6-dimethylbenzo[d]thiazol-2-yl)-6-((2-methoxyethyl)(methyl)amino)-2-morpholinopyrimidine-4-carboxamide] | ≤ 6.00
Cc1ccc([N+](=O)[O-])c(NC(=O)c2cc(OCCN3CCOCC3)nc(N3CCOCC3)n2)c1 [Compound 271, 2-Morpholin-4-yl-6-(2-morpholin-4-yl-ethoxy)-pyrimidine-4-carboxylic acid (5-methyl-2-nitro-phenyl)-amide] | > 6.00
COCCN(C)c1cc(C(=O)Nc2cccc(N(C)C(C)=O)c2)nc(N2CCOCC2)n1 [Compound 166, 6-[(2-Methoxy-ethyl)-methyl-amino]-2-morpholin-4-yl-pyrimidine-4-carboxylic acid [3-(acetyl-methyl-amino)-phenyl]-amide] | ≤ 6.00
O=C(Nc1cccc(Cl)c1)c1cc(OCCN2CCOCC2)nc(N2CCOCC2)n1 [Compound 287, 2-Morpholin-4-yl-6-(2-morpholin-4-yl-ethoxy)-pyrimidine-4-carboxylic acid (3-chloro-phenyl)-amide] | ≤ 6.00
Cc1[nH]c2ccc(NC(=O)c3cc(N4CCC(O)CC4)nc(N4CCOCC4)n3)cc2c1C [Compound 173, 6-(4-Hydroxy-piperidin-1-yl)-2-morpholin-4-yl-pyrimidine-4-carboxylic acid (2,3-dimethyl-1H-indol-5-yl)-amide] | > 6.00
Cn1c(=O)oc2ccc(NC(=O)c3cc(OCCN4CCOCC4)nc(N4CCOCC4)n3)cc21 [Compound 218, N-(3-methyl-2-oxo-2,3-dihydrobenzo[d]oxazol-5-yl)-2-morpholino-6-(2-morpholinoethoxy)pyrimidine-4-carboxamide] | > 6.00
CN1CCc2ccc(NC(=O)c3cc(OCCN4CCOCC4)nc(N4CCOCC4)n3)cc21 [Compound 214, N-(1-methylindolin-6-yl)-2-morpholino-6-(2-morpholinoethoxy)pyrimidine-4-carboxamide] | > 6.00
O=C(Oc1ccc2[nH]ccc2c1)c1cc(OCCc2ccccn2)nc(N2CCOCC2)n1 [Compound 72, 2-Morpholin-4-yl-6-(2-pyridin-2-yl-ethoxy)-pyrimidine-4-carboxylic acid 1H-indol-5-yl ester] | ≤ 6.00
Cc1cccc(NC(=O)c2cc(N3CCOCC3)nc(OCCc3ccccn3)n2)c1 [Compound 62, 6-Morpholin-4-yl-2-(2-pyridin-2-yl-ethoxy)-pyrimidine-4-carboxylic acid m-tolylamide] | ≤ 6.00
Cc1[nH]c2c(NC(=O)c3cc(OCCN4CCOCC4)nc(N4CCOCC4)n3)cccc2c1C [Compound 41, 2-Morpholin-4-yl-6-(2-morpholin-4-yl-ethoxy)-pyrimidine-4-carboxylic acid (2,3-dimethyl-1H-indol-7-yl)-amide] | ≤ 6.00
CN(CCO)c1cc(C(=O)Nc2cccc(N3CCCC3)c2)nc(N2CCOCC2)n1 [Compound 310, 6-[(2-Hydroxy-ethyl)-methyl-amino]-2-morpholin-4-yl-pyrimidine-4-carboxylic acid (3-pyrrolidin-1-yl-phenyl)-amide] | > 6.00
COCCN(C)c1cc(C(=O)Nc2ccc3c(c2)N(C)CC3)nc(N2CCOCC2)n1 [Compound 211, 6-((2-methoxyethyl)(methyl)amino)-N-(1-methylindolin-6-yl)-2-morpholinopyrimidine-4-carboxamide] | > 6.00

Compound | pIC50
CCc1c(C)[nH]c2ccc(NC(=O)c3cc(OCCN4CCOC4=O)nc(N4CCOCC4)n3)cc12 [Compound 222, 2-Morpholin-4-yl-6-[2-(2-oxo-oxazolidin-3-yl)-ethoxy]-pyrimidine-4-carboxylic acid (3-ethyl-2-methyl-1H-indol-5-yl)-amide] | > 6.00
Cc1[nH]c2ccc(NC(=O)c3cc(OCCN4CCOC4=O)nc(N4CCOCC4)n3)cc2c1C [Compound 21, 2-Morpholin-4-yl-6-[2-(2-oxo-oxazolidin-3-yl)-ethoxy]-pyrimidine-4-carboxylic acid (2,3-dimethyl-1H-indol-5-yl)-amide] | > 6.00
CCc1c(C)[nH]c2ccc(NC(=O)c3cc(N4CCC(O)CC4)nc(N4CCOCC4)n3)cc12 [Compound 177, 6-(4-Hydroxy-piperidin-1-yl)-2-morpholin-4-yl-pyrimidine-4-carboxylic acid (3-ethyl-2-methyl-1H-indol-5-yl)-amide] | > 6.00
CN1CCCc2ccc(NC(=O)c3cc(OCCN4CCOCC4)nc(N4CCOCC4)n3)cc21 [Compound 317, 2-Morpholin-4-yl-6-(2-morpholin-4-yl-ethoxy)-pyrimidine-4-carboxylic acid (1-methyl-1,2,3,4-tetrahydro-quinolin-7-yl)-amide] | > 6.00
O=C(Nc1nnc(C2CC2)s1)c1cc(OCCN2CCOCC2)nc(N2CCOCC2)n1 [Compound 163, 2-Morpholin-4-yl-6-(2-morpholin-4-yl-ethoxy)-pyrimidine-4-carboxylic acid (5-cyclopropyl-[1,3,4]thiadiazol-2-yl)-amide] | ≤ 6.00
CCc1c[nH]c2ccc(NC(=O)c3cc(N4CCC(O)CC4)cc(N4CCOCC4)n3)cc12 [Compound 174, 4-Hydroxy-6′-morpholin-4-yl-3,4,5,6-tetrahydro-2H-[1,4′]bipyridinyl-2′-carboxylic acid (3-ethyl-1H-indol-5-yl)-amide] | > 6.00
Cc1ccc(NC(=O)c2cc(OCCN3CCOCC3)nc(N3CCOCC3)n2)cn1 [Compound 297, 2-Morpholin-4-yl-6-(2-morpholin-4-yl-ethoxy)-pyrimidine-4-carboxylic acid (6-methyl-pyridin-3-yl)-amide] | ≤ 6.00
O=C(Nc1ccc2c(c1)OCO2)Nc1cc(N2CCOCC2)nc(OCCN2CCOCC2)n1 [Compound 123, 1-Benzo[1,3]dioxol-5-yl-3-[6-morpholin-4-yl-2-(2-morpholin-4-yl-ethoxy)-pyrimidin-4-yl]-urea] | ≤ 6.00
Cc1[nH]c2ccc(NC(=O)c3cc(OCCS(C)(=O)=O)nc(N4CCOCC4)n3)cc2c1C [Compound 249, N-(2,3-dimethyl-1H-indol-5-yl)-6-(2-(methylsulfonyl)ethoxy)-2-morpholinopyrimidine-4-carboxamide] | ≤ 6.00
O=C(Nc1ccc2[nH]ccc2c1)Nc1cc(OCCN2CCOCC2)nc(N2CCOCC2)n1 [Compound 137, 1-(1H-Indol-5-yl)-3-[2-morpholin-4-yl-6-(2-morpholin-4-yl-ethoxy)-pyrimidin-4-yl]-urea] | > 6.00
O=C(Nc1cccc(O)c1)C(=O)Nc1cc(OCCc2ccccn2)nc(N2CCOCC2)n1 [Compound 86, N-(3-Hydroxy-phenyl)-N′-[2-morpholin-4-yl-6-(2-pyridin-2-yl-ethoxy)-pyrimidin-4-yl]-oxalamide] | ≤ 6.00
O=C(Nc1ccc2[nH]c3c(c2c1)CCCC3)c1cc(N2CCC(O)CC2)nc(N2CCOCC2)n1 [Compound 184, 6-(4-Hydroxy-piperidin-1-yl)-2-morpholin-4-yl-pyrimidine-4-carboxylic acid (6,7,8,9-tetrahydro-5H-carbazol-3-yl)-amide] | > 6.00
COCCN(C)c1cc(C(=O)Nc2cccc(C#CC(C)(C)O)c2)nc(N2CCOCC2)n1 [Compound 226, 6-[(2-Methoxy-ethyl)-methyl-amino]-2-morpholin-4-yl-pyrimidine-4-carboxylic acid [3-(3-hydroxy-3-methyl-but-1-ynyl)-phenyl]-amide] | ≤ 6.00
Cc1[nH]c2ccc(NC(=O)c3cc(NCC(=O)N4CCN(C)CC4)nc(N4CCOCC4)n3)cc2c1C [Compound 106, 6-[2-(4-Methyl-piperazin-1-yl)-2-oxo-ethylamino]-2-morpholin-4-yl-pyrimidine-4-carboxylic acid (2,3-dimethyl-1H-indol-5-yl)-amide] | > 6.00
Cc1[nH]c2ccc(NC(=O)c3cc(OCCc4ccccn4)nc(N4CCOCC4)n3)cc2c1C [Compound 2, 2-Morpholin-4-yl-6-(2-pyridin-2-yl-ethoxy)-pyrimidine-4-carboxylic acid (2,3-dimethyl-1H-indol-5-yl)-amide] | > 6.00
CN1C(=O)C(C)(C)c2cc(NC(=O)c3cc(OCCN4CCOCC4)nc(N4CCOCC4)n3)ccc21 [Compound 219, 2-morpholino-6-(2-morpholinoethoxy)-N-(1,3,3-trimethyl-2-oxoindolin-5-yl)pyrimidine-4-carboxamide] | > 6.00
CONc1cc(C(=O)Nc2cccc(N(C)C)c2)nc(N2CCOCC2)n1 [Compound 196, N-(3-(dimethylamino)phenyl)-6-(methoxyamino)-2-morpholinopyrimidine-4-carboxamide] | > 6.00
